Where only a bound is given, the exact number is not on record here.

In test [1] the target is Dual specificity protein kinase CLK2 (Homo sapiens, UniProt P49760). The test is described as follows: Inhibition of human recombinant CLK2 using YRRAAVPPSPSLSR substrate by radiometric scintillation assay.
Test [2] has as its target Dual specificity protein kinase CLK4 (Homo sapiens, UniProt Q9HAZ1). In words: Inhibition of human recombinant CLK4 using YRRAAVPPSPSLS substrate by radiometric scintillation assay.
The target in test [3] is T1, Dual specificity tyrosine-phosphorylation-regulated kinase 2 (Homo sapiens, UniProt Q92630).
T1 sequence (Q92630 whole entry): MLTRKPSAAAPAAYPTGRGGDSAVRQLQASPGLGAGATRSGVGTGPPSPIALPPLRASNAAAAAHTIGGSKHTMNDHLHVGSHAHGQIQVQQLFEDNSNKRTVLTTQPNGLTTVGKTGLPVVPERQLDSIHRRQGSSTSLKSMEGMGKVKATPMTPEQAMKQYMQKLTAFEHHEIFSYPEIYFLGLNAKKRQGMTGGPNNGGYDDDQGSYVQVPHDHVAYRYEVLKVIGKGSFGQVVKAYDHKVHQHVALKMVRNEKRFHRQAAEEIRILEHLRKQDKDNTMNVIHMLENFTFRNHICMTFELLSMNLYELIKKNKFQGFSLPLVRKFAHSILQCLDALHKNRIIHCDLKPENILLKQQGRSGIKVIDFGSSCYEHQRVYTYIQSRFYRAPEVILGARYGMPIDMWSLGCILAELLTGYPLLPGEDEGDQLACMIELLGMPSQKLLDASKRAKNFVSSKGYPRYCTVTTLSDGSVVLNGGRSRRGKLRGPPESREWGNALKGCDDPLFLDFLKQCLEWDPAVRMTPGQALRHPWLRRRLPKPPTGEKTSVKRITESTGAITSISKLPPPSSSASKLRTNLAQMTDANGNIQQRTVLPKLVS
The test is described as follows: Inhibition of human full length recombinant DYRK2 using casein substrate by radiometric scintillation assay.

Test [4] has as its target Homeodomain-interacting protein kinase 1 (Homo sapiens, UniProt Q86Z02). In words: Inhibition of human recombinant HIPK1 using myelin substrate by radiometric scintillation assay.
The target in test [5] is Dual specificity protein kinase CLK1 (Homo sapiens, UniProt P49759). The test is described as follows: Inhibition of human recombinant CLK1 using ERMRPRKRQGSVR substrate by radiometric scintillation assay.
Dual specificity protein kinase CLK1, sequence (P49759 whole entry): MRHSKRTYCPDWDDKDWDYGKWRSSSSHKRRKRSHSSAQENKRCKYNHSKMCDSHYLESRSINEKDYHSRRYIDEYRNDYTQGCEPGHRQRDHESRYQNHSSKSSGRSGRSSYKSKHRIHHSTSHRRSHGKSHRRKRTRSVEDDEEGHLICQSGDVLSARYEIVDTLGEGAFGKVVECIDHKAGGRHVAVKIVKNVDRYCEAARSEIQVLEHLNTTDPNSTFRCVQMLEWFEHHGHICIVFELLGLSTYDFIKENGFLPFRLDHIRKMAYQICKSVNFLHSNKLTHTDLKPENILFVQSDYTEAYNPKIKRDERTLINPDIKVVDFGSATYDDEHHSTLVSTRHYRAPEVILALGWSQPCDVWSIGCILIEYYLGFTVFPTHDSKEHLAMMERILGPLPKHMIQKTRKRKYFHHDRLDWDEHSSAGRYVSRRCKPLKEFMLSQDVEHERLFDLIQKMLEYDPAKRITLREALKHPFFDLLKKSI
The target in test [6] is Dual specificity tyrosine-phosphorylation-regulated kinase 1A (Homo sapiens, UniProt Q13627). In words: Inhibition of human full length recombinant DYRK1A using RRRFRPASPLRGPP substrate by radiometric scintillation assay.
Test [7] deals with Homeodomain-interacting protein kinase 2 (Homo sapiens, UniProt Q9H2X6). In words: Inhibition of human recombinant HIPK2 using myelin substrate by radiometric scintillation assay.
Test [8] has as its target Dual specificity protein kinase CLK3 (Homo sapiens, UniProt P49761). The test is described as follows: Inhibition of human full length recombinant CLK3 using ERMRPRKRQGSVR substrate by radiometric scintillation assay.
For test [9], the target named is Homeodomain-interacting protein kinase 3 (Homo sapiens, UniProt Q9H422). In words: Inhibition of human recombinant HIPK3 using myelin substrate by radiometric scintillation assay.
Homeodomain-interacting protein kinase 3, sequence (Q9H422 whole entry): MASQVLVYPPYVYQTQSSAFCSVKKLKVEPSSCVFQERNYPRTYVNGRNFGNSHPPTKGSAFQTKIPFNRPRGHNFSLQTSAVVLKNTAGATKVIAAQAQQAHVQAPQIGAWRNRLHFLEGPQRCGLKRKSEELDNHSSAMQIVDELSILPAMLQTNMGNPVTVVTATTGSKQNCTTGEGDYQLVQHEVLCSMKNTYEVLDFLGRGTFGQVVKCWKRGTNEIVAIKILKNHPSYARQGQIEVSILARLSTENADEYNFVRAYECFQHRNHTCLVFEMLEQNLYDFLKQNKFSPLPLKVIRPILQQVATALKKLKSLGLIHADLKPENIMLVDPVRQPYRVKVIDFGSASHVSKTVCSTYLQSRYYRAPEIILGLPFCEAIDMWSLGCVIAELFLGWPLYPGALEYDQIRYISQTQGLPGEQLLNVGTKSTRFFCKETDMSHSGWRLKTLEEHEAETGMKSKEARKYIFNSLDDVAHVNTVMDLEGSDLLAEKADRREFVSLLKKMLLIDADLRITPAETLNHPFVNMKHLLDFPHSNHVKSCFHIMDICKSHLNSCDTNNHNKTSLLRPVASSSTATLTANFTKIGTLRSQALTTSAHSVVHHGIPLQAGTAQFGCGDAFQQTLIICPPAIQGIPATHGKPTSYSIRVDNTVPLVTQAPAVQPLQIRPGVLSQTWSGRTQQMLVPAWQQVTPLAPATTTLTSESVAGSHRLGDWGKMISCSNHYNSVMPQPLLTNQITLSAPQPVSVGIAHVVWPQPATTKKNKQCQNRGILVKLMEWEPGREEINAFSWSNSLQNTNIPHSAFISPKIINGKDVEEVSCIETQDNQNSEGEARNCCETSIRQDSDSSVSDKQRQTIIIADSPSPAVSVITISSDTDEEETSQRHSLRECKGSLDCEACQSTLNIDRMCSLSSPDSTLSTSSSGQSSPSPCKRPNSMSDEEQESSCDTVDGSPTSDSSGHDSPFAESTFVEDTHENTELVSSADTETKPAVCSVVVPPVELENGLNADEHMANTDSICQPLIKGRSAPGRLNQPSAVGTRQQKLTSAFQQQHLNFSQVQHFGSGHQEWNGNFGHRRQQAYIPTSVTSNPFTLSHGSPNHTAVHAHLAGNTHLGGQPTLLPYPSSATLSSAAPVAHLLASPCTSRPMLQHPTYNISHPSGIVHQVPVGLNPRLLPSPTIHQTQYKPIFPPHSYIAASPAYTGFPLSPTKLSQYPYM
The target in test [10] is Dual specificity tyrosine-phosphorylation-regulated kinase 1B (Homo sapiens, UniProt Q9Y463). The test is described as follows: Inhibition of human full length recombinant DYRK1B using RRRFRPASPLRGPP substrate by radiometric scintillation assay.
Dual specificity tyrosine-phosphorylation-regulated kinase 1B, sequence (Q9Y463 whole entry): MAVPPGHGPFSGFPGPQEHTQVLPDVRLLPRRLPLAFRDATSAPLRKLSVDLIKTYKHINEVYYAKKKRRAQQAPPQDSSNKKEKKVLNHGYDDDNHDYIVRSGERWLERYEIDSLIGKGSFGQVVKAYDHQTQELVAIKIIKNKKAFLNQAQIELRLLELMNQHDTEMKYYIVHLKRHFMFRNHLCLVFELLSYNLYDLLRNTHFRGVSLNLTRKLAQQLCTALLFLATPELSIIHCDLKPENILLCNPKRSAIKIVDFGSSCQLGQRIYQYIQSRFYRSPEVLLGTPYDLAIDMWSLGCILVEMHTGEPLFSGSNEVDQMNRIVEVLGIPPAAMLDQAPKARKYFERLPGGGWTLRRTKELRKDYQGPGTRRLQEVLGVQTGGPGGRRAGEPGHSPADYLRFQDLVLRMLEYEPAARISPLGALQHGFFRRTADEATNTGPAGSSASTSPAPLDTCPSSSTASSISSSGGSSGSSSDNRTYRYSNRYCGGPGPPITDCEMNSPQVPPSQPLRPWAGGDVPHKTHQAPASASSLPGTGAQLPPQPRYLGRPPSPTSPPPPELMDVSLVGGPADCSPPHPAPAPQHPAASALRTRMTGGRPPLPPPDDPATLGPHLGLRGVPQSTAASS

Dual specificity protein kinase CLK3, sequence (P49761 whole entry): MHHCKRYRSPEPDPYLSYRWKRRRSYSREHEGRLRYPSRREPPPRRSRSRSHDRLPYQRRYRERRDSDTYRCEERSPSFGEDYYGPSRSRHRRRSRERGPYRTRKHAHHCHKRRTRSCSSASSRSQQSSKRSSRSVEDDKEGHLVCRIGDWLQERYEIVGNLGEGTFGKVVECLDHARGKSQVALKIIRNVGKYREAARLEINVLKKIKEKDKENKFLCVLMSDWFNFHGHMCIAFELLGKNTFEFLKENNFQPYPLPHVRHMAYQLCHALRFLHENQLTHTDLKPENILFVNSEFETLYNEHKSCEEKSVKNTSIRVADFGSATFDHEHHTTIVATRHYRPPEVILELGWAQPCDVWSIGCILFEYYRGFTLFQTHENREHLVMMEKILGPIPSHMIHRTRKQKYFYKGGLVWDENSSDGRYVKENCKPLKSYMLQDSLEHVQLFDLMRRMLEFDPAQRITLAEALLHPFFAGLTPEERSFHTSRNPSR
Dual specificity protein kinase CLK2, sequence (P49760 whole entry): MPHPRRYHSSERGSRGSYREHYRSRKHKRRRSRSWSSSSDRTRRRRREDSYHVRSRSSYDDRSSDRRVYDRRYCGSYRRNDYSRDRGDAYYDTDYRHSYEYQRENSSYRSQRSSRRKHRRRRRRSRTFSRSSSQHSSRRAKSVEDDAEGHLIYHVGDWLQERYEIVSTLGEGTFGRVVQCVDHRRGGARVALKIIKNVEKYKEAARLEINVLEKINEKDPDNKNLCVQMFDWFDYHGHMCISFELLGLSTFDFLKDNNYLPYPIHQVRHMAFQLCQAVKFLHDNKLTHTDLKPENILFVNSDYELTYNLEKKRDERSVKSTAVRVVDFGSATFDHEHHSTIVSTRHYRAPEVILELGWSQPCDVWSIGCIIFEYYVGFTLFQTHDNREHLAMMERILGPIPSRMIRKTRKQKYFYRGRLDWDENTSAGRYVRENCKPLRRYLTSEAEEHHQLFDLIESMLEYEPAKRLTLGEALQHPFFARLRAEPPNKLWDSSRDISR
Dual specificity protein kinase CLK4, sequence (Q9HAZ1 whole entry): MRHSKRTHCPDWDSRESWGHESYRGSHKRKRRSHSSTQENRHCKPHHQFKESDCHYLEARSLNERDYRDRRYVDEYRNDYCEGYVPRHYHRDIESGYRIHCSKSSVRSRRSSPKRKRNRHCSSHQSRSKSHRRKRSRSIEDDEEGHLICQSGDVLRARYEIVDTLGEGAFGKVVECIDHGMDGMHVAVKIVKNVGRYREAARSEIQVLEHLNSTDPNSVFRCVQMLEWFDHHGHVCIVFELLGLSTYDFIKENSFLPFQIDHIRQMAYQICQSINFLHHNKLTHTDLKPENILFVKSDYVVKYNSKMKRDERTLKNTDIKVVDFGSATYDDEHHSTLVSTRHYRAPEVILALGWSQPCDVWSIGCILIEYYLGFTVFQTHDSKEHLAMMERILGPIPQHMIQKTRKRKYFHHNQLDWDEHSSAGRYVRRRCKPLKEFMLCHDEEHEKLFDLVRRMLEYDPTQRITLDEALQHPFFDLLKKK
Homeodomain-interacting protein kinase 1, sequence (Q86Z02 whole entry): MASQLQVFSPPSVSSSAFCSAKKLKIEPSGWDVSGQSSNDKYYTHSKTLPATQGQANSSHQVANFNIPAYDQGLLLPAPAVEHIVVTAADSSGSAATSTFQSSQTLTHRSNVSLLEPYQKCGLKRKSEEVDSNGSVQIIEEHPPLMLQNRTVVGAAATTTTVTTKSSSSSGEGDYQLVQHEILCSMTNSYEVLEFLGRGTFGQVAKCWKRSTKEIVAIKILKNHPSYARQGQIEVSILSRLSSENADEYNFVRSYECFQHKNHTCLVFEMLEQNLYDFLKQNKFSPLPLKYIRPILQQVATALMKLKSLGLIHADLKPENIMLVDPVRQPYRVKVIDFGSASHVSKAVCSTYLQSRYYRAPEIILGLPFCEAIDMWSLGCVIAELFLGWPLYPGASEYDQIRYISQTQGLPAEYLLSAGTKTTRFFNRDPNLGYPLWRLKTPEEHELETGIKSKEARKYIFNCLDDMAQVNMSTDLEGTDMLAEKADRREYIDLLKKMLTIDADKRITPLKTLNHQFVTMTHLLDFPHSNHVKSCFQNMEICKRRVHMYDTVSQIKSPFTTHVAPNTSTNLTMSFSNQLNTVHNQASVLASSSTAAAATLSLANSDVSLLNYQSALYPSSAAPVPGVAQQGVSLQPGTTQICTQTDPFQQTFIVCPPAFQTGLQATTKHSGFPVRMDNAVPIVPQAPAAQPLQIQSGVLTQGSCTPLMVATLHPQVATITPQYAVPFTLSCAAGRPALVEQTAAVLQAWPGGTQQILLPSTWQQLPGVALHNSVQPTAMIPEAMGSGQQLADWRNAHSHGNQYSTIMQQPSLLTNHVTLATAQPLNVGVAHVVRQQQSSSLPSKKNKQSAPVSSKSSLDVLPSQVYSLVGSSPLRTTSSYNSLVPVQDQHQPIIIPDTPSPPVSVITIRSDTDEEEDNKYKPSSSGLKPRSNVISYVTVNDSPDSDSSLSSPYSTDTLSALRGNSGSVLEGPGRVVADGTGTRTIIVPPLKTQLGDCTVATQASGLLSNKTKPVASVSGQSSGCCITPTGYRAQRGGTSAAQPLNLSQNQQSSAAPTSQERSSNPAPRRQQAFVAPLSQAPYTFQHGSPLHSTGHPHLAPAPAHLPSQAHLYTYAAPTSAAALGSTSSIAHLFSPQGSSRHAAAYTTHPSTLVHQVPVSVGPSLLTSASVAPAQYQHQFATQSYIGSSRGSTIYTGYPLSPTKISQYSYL

Regarding `CC1(c2ccc(-c3coc4ccc(-c5cn[nH]c5)nc34)cc2)CC1`, the IC50 (commonly the concentration needed to halve the response being measured) in [1] was 155 nM; in [2], 320 nM; in test [3] it was above 3000 nM; in test [4], 220 nM; in test [5], 308 nM; in [6], above 3000 nM. The IC50 was 68 nM in test [7], above 3000 nM in test [8], 441 nM in [9] and above 3000 nM in [10].
`CN1CCC(c2cccc(-c3coc4ccc(-c5cnn(C)c5)nc34)c2)CC1`: the IC50 was 667 nM in [1]; 116 nM in [2]; above 3000 nM in test [3]; 354 nM in test [4]; 169 nM in test [5]; 568 nM in [6]. The IC50 was 260 nM in [7], above 3000 nM in [8], 692 nM in test [9] and above 3000 nM in test [10].
As for `C=C(C)c1ccc(-c2coc3ccc(-c4cn[nH]c4)nc23)cc1`, the IC50 in test [1] was 40 nM; in test [2], 42 nM; in test [3], above 3000 nM; in test [4], 51 nM; in test [5], 68 nM; in [6] it was 1370 nM. The IC50 in test [7] is 41 nM; in [8], above 3000 nM; in [9] it was 65 nM; in test [10], above 3000 nM.
With `COc1ccc(-c2coc3ccc(-c4cn[nH]c4)nc23)cc1`, the IC50 in [1] was determined as 39 nM; in test [2] it was 46 nM; in test [3], 1000 nM; in [4], 33 nM; in [7], 15 nM; in test [9], 66 nM.
Turning to `Cn1cc(-c2ccc3occ(-c4ccc(C(C)(C)C)cc4)c3n2)cn1`, the IC50 in test [1], in test [2], in [3], in test [4], in [5] and in test [6] was above 3000 nM in each case. Further, the IC50 in test [7], in test [8], in test [9] and in test [10] was above 3000 nM in each case.
Take `CC(C)(C)c1ccc(-c2coc3ccc(-c4cnsc4)nc23)cc1`: the IC50 in test [1], in test [2], in test [3], in [4], in [5] and in test [6] was above 3000 nM throughout. The IC50 in test [7], in [8], in [9] and in test [10] was above 3000 nM in each case.
`c1ccc2cc(-c3coc4ccc(-c5cn[nH]c5)nc34)ccc2c1`: the IC50 was 25 nM in [1]; 31 nM in [2]; 1430 nM in test [3]; 16 nM in [4]; 5 nM in [7]; 38 nM in test [9].
As for `c1n[nH]cc1-c1ccc2occ(-c3ccc(C45CC6CC(CC(C6)C4)C5)cc3)c2n1`, the IC50 in test [1], in test [2], in test [3], in [4], in test [5] and in [6] was above 3000 nM in each case. Moreover, the IC50 in test [7], in test [8], in test [9] and in [10] was above 3000 nM throughout.
Regarding `Cn1cc(-c2ccc3occ(-c4cccc(-c5cc[nH]n5)c4)c3n2)cn1`, the IC50 in test [1] is 16 nM; in test [2], 15 nM; in test [3] it was above 3000 nM; in test [4], 125 nM; in [5] it was 14 nM; in [6], 116 nM. For the same compound, the concentration for half-maximal inhibition (IC50) in test [7] worked out at 30 nM; in test [8] it was 1640 nM; in test [9], 128 nM; in test [10], 1890 nM.
As for `CC(C)(C)c1ccc(-c2coc3ccc(-c4nn[nH]n4)nc23)cc1`, the IC50 in test [1] was above 3000 nM; in [2], above 3000 nM; in test [3], above 3000 nM; in test [4], 545 nM; in test [5], above 3000 nM; in test [6], above 3000 nM. Besides, the IC50 in [7] was 357 nM; in test [8], above 3000 nM; in test [9], 720 nM; in test [10], above 3000 nM.
On to `c1n[nH]cc1-c1ccc2occ(-c3ccc(C4CCCCC4)cc3)c2n1`, for which the IC50 in test [1] was above 3000 nM; in [2] it was 776 nM; in test [3], above 3000 nM; in test [4], above 3000 nM; in test [5] it was 2110 nM; in test [6], above 3000 nM. In addition, the IC50 is 654 nM in [7], above 3000 nM in test [8], above 3000 nM in [9] and above 3000 nM in test [10].
For `c1ccc(-c2ccc(-c3coc4ccc(-c5cn[nH]c5)nc34)cc2)cc1`, the IC50 in [1] was 529 nM; in test [2] it was 126 nM; in [3] it was above 3000 nM; in test [4], 278 nM; in test [5], 114 nM; in [6] it was above 3000 nM. Further, the half-maximal inhibitory concentration (IC50) is 172 nM in test [7], above 3000 nM in test [8], 807 nM in test [9] and above 3000 nM in test [10].
On to `c1ccc(Cc2ccc(-c3coc4ccc(-c5cn[nH]c5)nc34)cc2)cc1`, for which the IC50 is 1840 nM in test [1]; 355 nM in [2]; above 3000 nM in test [3]; 921 nM in test [4]; 450 nM in test [5]; above 3000 nM in test [6]. Besides, the concentration for half-maximal inhibition (IC50) in [7] is 484 nM; in test [8], above 3000 nM; in test [9] it was above 3000 nM; in [10], above 3000 nM.
`c1ccc(-c2coc3ccc(-c4cn[nH]c4)nc23)cc1`: the IC50 in test [1] is 72 nM; in test [2], 41 nM; in test [3], 1150 nM; in test [4], 62 nM; in test [7] it was 42 nM; in test [9], 128 nM.
Turning to `Cn1cc(-c2ccc3occ(-c4ccc(C(C)(C)C)cc4)c3n2)nn1`, the IC50 in [1], in test [2], in test [3], in [4], in test [5] and in test [6] was above 3000 nM in each case. For the same compound, the half-maximal inhibitory concentration (IC50) in [7], in test [8], in [9] and in [10] was above 3000 nM throughout.
As to `Cn1cc(-c2coc3ccc(-c4cn[nH]c4)nc23)cn1`, the IC50 turned out to be 176 nM in test [1]; 45 nM in test [2]; 1210 nM in [3]; 235 nM in test [4]; 28 nM in [7].
With `Cn1cc(-c2ccc3occ(-c4cccc(C5CCNCC5)c4)c3n2)cn1`, the IC50 was 90 nM in test [1]; 52 nM in [2]; above 3000 nM in [3]; 264 nM in [4]; 59 nM in test [5]; 324 nM in test [6]. Moreover, the IC50 in test [7] is 179 nM; in test [8], above 3000 nM; in [9], 300 nM; in test [10] it was above 3000 nM.
Take `Cn1ccc(-c2ccc3occ(-c4ccc(C(C)(C)C)cc4)c3n2)n1`: the IC50 in test [1], in test [2], in test [3], in test [4], in test [5] and in test [6] was above 3000 nM throughout. For the same compound, the IC50 in [7], in [8], in test [9] and in test [10] was above 3000 nM throughout.
Regarding `CC(C)Cc1ccc(-c2coc3ccc(-c4cn[nH]c4)nc23)cc1`, the IC50 is 827 nM in test [1]; 896 nM in test [2]; above 3000 nM in test [3]; 685 nM in test [4]; 671 nM in test [5]; above 3000 nM in [6]. Moreover, the IC50 in test [7] was 501 nM; in test [8] it was above 3000 nM; in test [9], 1230 nM; in test [10] it was above 3000 nM.
As for `CC(C)(C)c1ccc(-c2coc3ccc(-c4cc[nH]n4)nc23)cc1`, the IC50 in test [1], in test [2], in test [3], in test [4], in test [5] and in test [6] was above 3000 nM each time. The IC50 in [7] is 1280 nM; in [8], above 3000 nM; in test [9], above 3000 nM; in [10] it was above 3000 nM.

The values are drawn from ChEMBL document CHEMBL4732242 (Eur J Med Chem, 2021).
